The values that follow come from paper PMC2500149 (International Journal of Medical Sciences, 2008).

Data set [1] can be described thus: Far UV circular dichroism, TFE polarity titration. The format is physicochemical. As to conditions: aqueous solution, 10% TFE, 100 µg/ml.
The subject of another data set is cells. As to conditions: free peptide without transporter; stated, no experiment described; cited from earlier work.
Data set [2] can be described thus: Solubility of the peptides in water and TFE/water. The format is physicochemical.
For data set [3] the following is noted: statement of the introduction; cited from earlier work.

On to ITFEDLLDYYGPKC [CAI-peptide], for which the “aggregation (inferred from poor water solubility and β-structure in CD)” value in data set [1] is “oligomeric aggregates are formed”. The “direct cell permeation / transfer across biomembranes” value in the data set with cells is given as “cannot permeate cells directly”. Moreover, the “water solubility (in words)” value in data set [2] is recorded as “water insoluble”.
As for `C=C(C)[C@@H]1CC[C@]2(C(=O)O)CC[C@]3(C)[C@H](CC[C@@H]4[C@@]5(C)CC[C@H](OC(=O)CC(C)(C)C(=O)O)C(C)(C)[C@@H]5CC[C@]43C)[C@@H]12` [PA-457], in data set [3], the water solubility entry is listed as “limited water solubility”.
With ITFEDLLDYYGP [CAI(Pep1)], the water solubility result in data set [3] is on record as “limited water solubility”.
`Cc1ccc(NC(=O)NCCSCc2ccc(CN(C)C)o2)cc1Cl` [CAP-1]: the water solubility result in data set [3] is recorded as “limited water solubility”.
